# Test results taken from patent publication US10610517B2, “Compositions and methods for treating neoplastic diseases” (Celgene International II Sàrl, priority 2004, dated 2020).
# Columns and labels:
# MM.1S MM cells = experiment: VEGF-induced migration of MM cells; type: cell-based, human; details: 7 or 10 nM; FIG. 8
# Protocol: VEGF is elevated in the bone marrow microenvironment and triggers migration, growth, and angiogenesis in MM cells. See Podar, K., Tai, Y. T., Lin, B. K., Narsimhan, R. P., Sattler, M., Kijima, T., Salgia, R., Gupta, D., Chauhan, D. & Anderson, K. C. […] Thus, whether the compound of formula (II) (X=Cl) alters VEGF-induced migration of MM cells was evaluated. VEGF induced migration was examined in the presence or absence of the compound (7 or 10 nM). Cell migration was assayed as described previously in Podar, K., Tai, Y. T., Davies, F. E., Lentzsch, S., Sattler, M., Hideshima, T., Lin, B. K., Gupta, D., Shima, Y., Chauhan, D., Mitsiades, C., Raje, N., Richardson, P. & Anderson, K. C. […] These findings indicate that the compound may negatively regulate both homing of MM cells to the bone marrow and their egress into the peripheral blood.
# patient MM-derived BMSCs = experiment: DNA fragmentation apoptosis assay on bone marrow stromal cells; type: cell-based, human; details: 20 nM, 24 h, BMSCs Patient #1-5; FIG. 6
# [1] = biological target: proteasome β-5, β-1, β-2 subunits in MM.1S cells (Homo sapiens, UniProt P28072+P28074+Q99436); type: cell-based
# Protocol: In vivo determination of proteasome activity was conducted using a competition experiment with Dansyl-Ahx3L3VS, which covalently modifies all active proteasome subunits. This inhibitor contains a dansyl sulfonamide hexanoyl hapten that can be visualized by immunoblotting using antibodies against the dansyl moiety. […] Cells were lysed by incubating them for 30 mins in NP-40 lysis buffer (50 mM Tris-HCl pH 8.0, 150 mM NaCl, 1% NP-40), followed by 5 min. centrifugation to remove membrane fractions, nuclei, and cell debris. […] Blots were developed by enhanced chemiluminescence (Western Lightning, Perkin-Elmer).
smiles,measurement,setting,value
CC12OC(=O)C1(C(O)C1C=CCCC1)NC(=O)C2CCCl (centres unmarked) [compound of formula (II) (X=Cl)],VEGF-induced migration,MM.1S MM cells,decreases VEGF-induced migration
same,apoptosis by DNA fragmentation assay,patient MM-derived BMSCs,does not induce apoptosis
same,dansylAhx3L3VS-labeling of the β-5 subunits,"[1]; 7 nM, 30 mins, 1 h or 3 h, FIG. 4",decreases the dansylAhx3L3VS-labeling of the β-5 subunits
same,concentration decreasing dansylAhx3L3VS-labeling of the β-1 subunits,[1]; MM.1S cells,1 nM
same,concentration decreasing dansylAhx3L3VS-labeling of the β-2 subunits,[1]; MM.1S cells,20 nM
